Patent US4769382A, “Preparation for preventing and treatment of skin radiation burn lesions” (priority 1986, dated 1988)

Experiments:
Type in all cases: in vivo, random-bred albino rats
skin (rat) = assay: Comparative evaluation of radioprotective effect with known preparations, local X-ray irradiation 30 Gy
Excerpt: For a comparative evaluation the data obtained in a similar experiment with a number of known preparations (castamine, ionol, dimethylsulphoxide), as well as with eugenol (3-methoxy-4-hydroxyallylbenzene) and castor oil were used.
Ionol (4-methyl-2,6-ditretbutylphenol) is employed as control as an analog-antioxidant featuring a radioprotective activity.

[1] = system: skin of the auricle (rat); assay: Local radioprotective effect on skin of rat auricle upon β-irradiation (60 Gy); conditions: β-radiation; for Duration of response, dry desquamation / Duration of response, moist desquamation / Duration of response, severe erythema / Duration of response, weak erythema: Eeff 0.76 MeV, applied 20 minutes before irradiation, X ± m
Procedure: The effect of β-radiation was studied on the skin of floors of the auricle by way of using a flexible applicator containing a source of a soft beta-radiation of ^204 T1. The maximum energy (E) in tissues is […]. The dose rate of the employed sources was 7.2 and 12 Gy/h. […] The extent of the skin radioprotective effect was assessed by a number of clinical dermatological tests by recording visual observations over the progress of radiation dermatitis. The tests were effected by the blank method at strictly predetermined hours of the day by a team of specialists. The form of dermatitis in each irradiated skin locus (moist or dry desquamation, intense and weak erythema) was recorded daily by means of special codes over the entire observation period. The number of the same codes for every irradiated skin locus (frequencies of features) were summed up and a group mean value was calculated. […] The thus-obtained values were statistically processed and evaluated by means of the Student criterion. Therefore, the severity of radiodermatitis was quantified by means of the following tests: (a) duration of periods of light and severe erythema; (b) duration of periods of moist and dry desquamation.

skin of paws (rat) = assay: Radioprotective effect on skin of rat paws upon X-ray irradiation (20 and 30 Gy); conditions: 20 Gy
back skin (rat) = assay: Antiburning effect on thermal burn (III degree) of the back skin
Procedure: Since the leading role in the pathogenesis of thermal death of cells is played by processes of injury of cellular membranes, the preparation according to the present invention has been tested for feasibility of its use as an antiburning preparation. […] The contact plate of the electric heater had the temperature of 200° C., the exposure time--10 seconds. […] As judged by the clinico-histological assessment, the severity of the thus-produced injury corresponded to a III degree burn. The course of treatment of the animals was started directly after effecting an experimental burn and continued till a complete healing of the wound surface. […] The ointments were prepared on lanolin or vaseline base with different content of the active principle. […] Vaseline and lanolin were used as control.

[2] = Eeff 8 keV, groups 5 (dimethylsulphoxide) and 6 (5% emulsion on vaseline), X ± m

SMILES | Reduction of duration of radiation response stages, moist desquamation (skin (rat)) | Total weighed evaluation (skin (rat)) | Diminution of response, moist desquamation [1] | Duration of response, dry desquamation [1] | Duration of response, moist desquamation [1] | Duration of response, severe erythema [1] | Duration of response, weak erythema [1] | other results
C=CCc1ccc(O)c(OC)c1 [Eugenol, 3-methoxy-4-hydroxyallylbenzene] | 36.0% | 27.5% |  |  |  |  |  | 
Cc1cc(C(C)(C)C)c(O)c(C(C)(C)C)c1 [Ionol, 4-methyl-2,6-ditertiarybutylphenol] | 43.0% | 37.85% |  |  |  |  |  | Reduction of duration of radiation response stages, erythema (skin (rat)): 28.0%
C[S+](C)[O-] [Dimethylsulphoxide, dimethylsulphoxide] | 30.0% | 22.5% | 100 % of the control | 1.0 ± 1.2 days | 0.0 ± 0.0 days | 1.3 ± 1.7 days | 1.7 ± 1.7 days | Diminution of response, dry desquamation (skin of paws (rat)): 50 % of the control; Duration of response, dry desquamation (skin of paws (rat); [2]): 2.8 ± 0.6 days; Duration of response, moist desquamation (skin of paws (rat); [2]): 0.1 ± 0.1 days; Duration of response, severe erythema (skin of paws (rat); [2]): 0.4 ± 0.3 days; Duration of response, weak erythema (skin of paws (rat); [2]): 1.6 ± 0.3 days
CCOC(=O)C1=C(C)NC(C)=C(C(=O)OCC)C1 [Compound of the invention, 2,6-dimethyl-3,5-diethoxycarbonyl-1,4-dihydropyridine] |  |  | 100 % of the control | 0.3 ± 0.2 days | 0.0 ± 0.0 days | 0.3 ± 0.3 days | 1.7 ± 0.5 days | Diminution of response, dry desquamation [1]: 86 % of the control; Diminution of response, severe erythema [1]: 86 % of the control
CC(C)(CO)C(O)C(=O)NCCCO (stereo not shown) [Panthenol] |  |  |  |  |  |  |  | Healing period, female (back skin (rat); female rats, control I (vaseline) 36.8 ± 6.8, control 2 (lanolin) 36.5 ± 6.5): 36.0 ± 7.0 days; Stimulant effect, female (back skin (rat); female rats, relative to control I (vaseline)): +2.2%; Healing period, male (back skin (rat); male rats, control I (vaseline) 32.8 ± 4.0, control 2 (lanolin) 33.1 ± 3.5): 29.7 ± 4.3 days; Stimulant effect, male (back skin (rat); male rats, relative to control 2 (lanolin)): +10,3%
